# In patent publication US9585929B2 (ZHEJIANG KANGLAITE GROUP CO., LTD., priority 2014, dated 2017):
# Where a name gives a salt, the structure may show the parent alone. Marks after values point to notes of the source that are not given here.
# Assays:
# [1] = tested on: QGY human hepatoma; test: Xenograft model of QGY human hepatoma inoculated subcutaneously in nude mice
# Experimental: (§11) A549 Human lung cancer cells cryopreserved in liquid nitrogen were recovered, and incubated in a 37 incubator under 5% CO2. After being subcultured, cells in a logarithmic growth stage were distributed with normal saline to be a cell suspension in a concentration of 1-2×10^7 cells/ml. The cell suspension was inoculated into BALB/C nude mice (SPF grade, 18-20 g, 6 weeks old, male) subcutaneously at right axillary. The tumor tissues were aseptically taken from the 2nd generation of xenograft model of A549 human lung cancer in a vigorous growth stage and cut into small uniform pieces in the size of 1-2 mm^3. The right axillary of each nude mouse was inoculated one piece subcutaneously via a trocar. When the inoculated tumor could be touched, the mice were randomly grouped and administered according to the experimental design program. All contacted feed, padding, cages and equipment, etc., should be autoclaved prior to use. The nude mice were fed in a laminar flow rack. Tumor sizes and animal weights were observed and tested dynamically. Mice in each group were sacrificed 3 weeks later or so, and tumors were surgically removed and weighed. The inhibition rate on tumor was calculated according to the following formula: Inhibition rate %=[(Mean tumor weight of the control group−mean tumor weight of the treatment group)/mean tumor weight of the control group]×100%;
# (§12) Q value of antitumor effect in drug combination was calculated according to Jin's formula: Q=Ea+b/(Ea+Eb−Ea×Eb) Wherein Ea+b=the tumor inhibition rate of drug combination, Ea or Eb=the tumor inhibition rate of drug A or drug B, respectively. If Q value=0.85-1.15, an additive effect (+) was shown; if Q value>1.15, a synergistic effect (++) was shown.
# [2] = tested on: A549 human lung cancer; test: Xenograft model of A549 human lung cancer inoculated subcutaneously in nude mice; type: in vivo, BALB/C nude mice
# Experimental: as §11, §12
# [3] = tested on: S180 sarcoma; test: S180 sarcoma model in mice; type: in vivo, Kunmin mice
# Experimental: The injection of the invention (10 g/100 ml), Cyclophosphamide (CTX), Mitoxantrone (DHAD), Mitomycin (MMC) and normal saline
# Ascitic fluid of mice having well-grown […] sarcoma was diluted with normal saline (1:4) to obtain a cell suspension of about 1-2×10^7 cells/ml. Each mouse was inoculated with 0.2 ml of the suspension subcutaneously at the right axilla, and the mice were grouped randomly. The administration began from the next day according to the dosage program in Table 7. On the tenth day after the inoculation of S180, animals were sacrificed via cervical dislocation and dissected to take out the tumor block. Weights of tumor were compared and inhibition rates were calculated for each group.
# [4] = tested on: Bcap-37 human breast cancer; test: Bcap-37 human breast cancer model in nude mice; type: in vivo, BALB/C nude mice; settings: Docetaxel 25 mg/kg ip × 1
# Experimental: The injection of the invention (10 g/100 ml), Docetaxel injection (Taxotere, 20 mg/vial) and normal saline
# Bcap-37 human breast cancer: inoculated in BALB/C nude mice (SPF grade), 18-20 g, female
# (§1) Tumor blocks of well-grown Bcap-37 human breast cancer were homogenized in normal saline to obtain cell suspensions in the concentration of 1-2×10^7 cells/ml. Each nude mouse was inoculated with 0.2 ml of the suspension at the right axilla subcutaneously, and the mice were grouped randomly. The administration began from the 7th day after the inoculation. 20 Days after the inoculation, the mice were sacrificed. Tumor blocks were taken out and weighed. Differences of tumor weight between each experimental group and the control group were compared, and tumor inhibition rates and Q values were calculated.
# [5] = tested on: SMMC-7721 human hepatoma; test: Xenograft model of SMMC-7721 human hepatoma inoculated subcutaneously in nude mice; type: in vivo
# Experimental: A549 Human lung cancer cells cryopreserved in liquid nitrogen were recovered, and incubated in a 37 incubator under 5% CO2. After being subcultured, cells in a logarithmic growth stage were distributed with normal saline to be a cell suspension in a concentration of 1-2×10^7 cells/ml. The cell suspension was inoculated into BALB/C nude mice (SPF grade, 18-20 g, 6 weeks old, male) subcutaneously at right axillary. The tumor tissues were aseptically taken from the 2nd generation of xenograft model of A549 human lung cancer in a vigorous growth stage and cut into small uniform pieces in the size of 1-2 mm^3. The right axillary of each nude mouse was inoculated one piece subcutaneously via a trocar. When the inoculated tumor could be touched, the mice were randomly grouped and administered according to the experimental design program. […] The nude mice were fed in a laminar flow rack. Tumor sizes and animal weights were observed and tested dynamically. Mice in each group were sacrificed 3 weeks later or so, and tumors were surgically removed and weighed. The inhibition rate on tumor was calculated according to the following formula: Inhibition rate %=[(Mean tumor weight of the control group−mean tumor weight of the treatment group)/mean tumor weight of the control group]×100%;
# as §12
# [6] = tested on: PANC-1 human pancreatic cancer; test: PANC-1 human pancreatic cancer model in nude mice; type: in vivo, BALB/C nude mice; settings: Gemcitabine 60 mg/kg iv × 1
# Experimental: as §12
# PANC-1 human pancreatic cancer cells: inoculated in BALB/C nude mice, 16-18 g, female
# Tumor blocks of well-grown PANC-1 human pancreatic cancer were inoculated subcutaneously in 4-week-old female BALB/C nude mice. The nude mice were grouped randomly and administered. One week after the end of the administration, the mice were sacrificed and dissected. Tumor blocks were taken out and weighed. Differences of tumor weight between each experimental group and the control group were compared and the tumor inhibition rates were calculated.
# [7] = tested on: FC-3M human prostate cancer; test: FC-3M human prostate cancer model in nude mice; type: in vivo, BALB/C nude mice
# Experimental: The injection of the invention (10 g/100 ml), Leuprolide acetate (Lupron) and normal saline
# Tumor blocks of well-grown FC-3M human prostate cancer were homogenized in normal saline (1:4). Each nude mouse was inoculated with 0.2 ml of the suspension at the right axilla subcutaneously, and the mice were grouped randomly. The administration began from the next day. 21 Days after the inoculation, the mice were sacrificed. Tumor blocks were taken out and weighed. Differences of tumor weight between each experimental group and the control group were compared and the tumor inhibition rates were calculated.
# [8] = tested on: A549 (human lung cancer cells); test: MTT inhibition of tumor cell growth in vitro; type: cell-based
# Experimental: (§2) The inhibition effects of samples on the above-mentioned cell lines were detected by using MTT method. The specific procedures were as follows:
# (§3) (1) Cell culture: (a) Storaged cells were taken out from the liquid nitrogen, thawed quickly in a 37 water bath, then aseptically transferred into 6 ml of cellular medium in a 10 ml centrifugal tube, centrifuged at 1000 rpm for 5 min. The supernatant was discarded, then the precipitated cells were re-suspensed in 5-6 ml cellular media by pipetting and transferred into a flask in a 37 incubator for cell culture; (b) Next day, the flask was taken out from the incubator and the used medium was discarded, then the cells were incubated in 5-6 ml fresh medium in the 37 incubator; (c) On the third day, the flask was taken out from the incubator and the used medium was discarded, then 2-3 ml of PBS (pH7.4) was added into the flask with rocking for cleaning it and the used PBS was discarded. Such a cellular cleaning step was repeated once again. 3-5 drops of 0.25% trypsin solution were added into the flask with sloshing, thus well-distributed in it. The flask was capped and placed in a 37 incubator for about 3 min, and the separation of cells from the flask wall was observed under the microscope. 2 ml of cellular medium was added and cells were separated completely from the flask wall by pipetting, then the cell suspension was transferred into 2 separate clean flasks, each containing 5-6 ml medium. The cell suspension was well-distributed by pipetting, then the flask was placed in a 37 incubator. (d) Step (c) was repeated every other day. In the whole cultivation process, adherent cells were not allowed to grow too dense and suspension cells were always maintained at a logarithmic growth stage.
# (§4) This solution was diluted in a gradient dilution with PBS to obtain a set of sample solutions in the concentration of 10 mg/ml, 5000 μg/ml, 2500 μg/ml, 1250 μg/ml, 625 μg/ml and 312.5 μg/ml, respectively.
# (§5) (3) Each diluted sample solution was added into duplicated wells of a 96 well flat-bottom microplate (10 μl/well). The correspondingly diluted DMSO solutions, as controls, were added into the wells of the microplate.
# (§6) (4) Cells in a logarithmic growth stage were trypsinized and washed, then re-suspended in the medium containing 10% calf serum. The number of living cells was counted in Trypan blue dye exclusion method and cell suspensions were adjusted into a density of 2×10^5 cell/ml.
# (§7) (5) The cell-contained 96 well flat-bottom microplate was placed in a 37 incubator and cells were incubated under 5% CO2 for 48 h.
# (§8) (6) 20 μl of 5 mg/ml MTT solution was added into each well and cells were incubated continuously in the incubator for 3-4 h.
# (§9) (7) 100 μl of crystal dissolving solution was added into each well and cells were incubated continuously in the incubator overnight, so as to dissolve the resulted formazan crystals sufficiently. Then, the absorbance value was measured at 570 nm for each well.
# (§10) (8) Based on absorbance values, inhibition rates on the cell growth were calculated for sample groups of various concentrations. The calculation formula was as follows: (1−mean absorbance of experimental wells/mean absorbance of control wells)×100%
# [9] = tested on: Bcap-37 (human breast cancer cells); test: MTT inhibition of tumor cell growth in vitro; type: cell-based; settings: Bcap37
# Experimental: as §2, §3, §4, §5, §6, §7, §8, §9, §10
# [10] = tested on: H460 (human lung cancer cells); test: MTT inhibition of tumor cell growth in vitro; type: cell-based; settings: NCI-H460
# Experimental: as §2, §3, §4, §5, §6, §7, §8, §9, §10
# [11] = tested on: HepG-2 (human hepatic cancer cells); test: MTT inhibition of tumor cell growth in vitro; type: cell-based; settings: HepG2
# Experimental: as §2, §3, §4, §5, §6, §7, §8, §9, §10
# [12] = tested on: MCF-7 (human breast cancer cells); test: MTT inhibition of tumor cell growth in vitro; type: cell-based; settings: MCF7
# Experimental: as §2, §3, §4, §5, §6, §7, §8, §9, §10
# [13] = tested on: PANC-1 (human pancreatic cancer cells); test: MTT inhibition of tumor cell growth in vitro; type: cell-based
# Experimental: as §2, §3, §4, §5, §6, §7, §8, §9, §10
# [14] = tested on: SKOV3 (human ovarian cancer cells); test: MTT inhibition of tumor cell growth in vitro; type: cell-based; settings: SK-OV-3
# Experimental: as §2, §3, §4, §5, §6, §7, §8, §9, §10
# [15] = tested on: SMMC-7721 (human hepatic cancer cells); test: MTT inhibition of tumor cell growth in vitro; type: cell-based
# Experimental: as §2, §3, §4, §5, §6, §7, §8, §9, §10
# [16] = tested on: MDA-MB-435 human breast cancer; test: MDA-MB-435 human breast cancer model in nude mice; type: in vivo, BALB/C nude mice; settings: Paclitaxel 50 mg/kg ip × 1
# Experimental: as §1, with “Each” for “Tumor blocks of well-grown Bcap-37 human breast cancer were homogenized in normal saline to obtain cell suspensions in the concentration of 1-2×10^7 cells/ml. Each”, “18” for “20”
# [17] = tested on: LM-3 human hepatoma; test: Xenograft model of LM-3 human hepatoma inoculated subcutaneously in nude mice
# Experimental: The injection of the invention (10 g/100 ml), cyclophosphamide (Jiangsu Hengrui Medicine Co., Ltd), blank fat emulsion and normal saline
# [18] = tested on: W256 cancer sarcoma; test: W256 cancer sarcoma model in rats; type: in vivo, Wistar rats
# Experimental: The injection of the invention (10 g/100 ml), Cyclophosphamide (CTX) and normal saline
# W256 cancer sarcoma: inoculated in Wistar rats, 50-60 g, female
# Ascitic fluid of rats with well-grown W256 cancer sarcoma was diluted with normal saline to obtain a cell suspension of about 1-2×10^7 cells/ml. Each rat was inoculated with 0.2 ml of the suspension at the right axilla subcutaneously. The rats were grouped randomly next day and began administration. Two weeks later, animals were sacrificed and dissected to take out the tumor block. Weights of tumor were compared between each experimental group and the control group and tumor inhibition rates were calculated.
# [19] = Gemcitabine 25 mg/kg iv × 3 q 3 d
# [20] = Gemcitabine 50 mg/kg iv × 3 q 3 d
# [21] = cyclophosphamide 15 mg/kg ip × 7 qd
# [22] = cyclophosphamide 30 mg/kg ip × 7 qd
structure (smiles),measurement,setting,value
COc1cccc2c1C(=O)c1c(O)c3c(c(O)c1C2=O)C[C@@](O)(C(=O)CO)C[C@@H]3O[C@H]1C[C@H](N)[C@H](O)[C@H](C)O1 [Adriamycin],Inhibition rate,[1]; Adriamycin 1 mg/kg ip × 7 qd,38.41%
same,Weight of animal start,[1]; Adriamycin 1 mg/kg ip × 7 qd,21.3 g
same,Weight of tumor x ± SD,[1]; Adriamycin 1 mg/kg ip × 7 qd,0.712 ± 0.18 g
same,Inhibition rate,[1]; Adriamycin 2 mg/kg ip × 7 qd,70.76%
same,Weight of tumor x ± SD,[1]; Adriamycin 2 mg/kg ip × 7 qd,0.338 ± 0.17 g
N.N.[Cl][Pt][Cl] [Cisplatin],Inhibition rate,[2]; Cisplatin 1 mg/kg ip × 7 qd,42.13%
same,Weight of animal end,[2]; Cisplatin 1 mg/kg ip × 7 qd,24.0 g
same,Weight of animal start,[2]; Cisplatin 1 mg/kg ip × 7 qd,20.2 g
same,Weight of tumor x ± SD,[2]; Cisplatin 1 mg/kg ip × 7 qd,0.765 ± 0.11 g
same,Inhibition rate,[2]; Cisplatin 2 mg/kg ip × 7 qd,86.31%
same,Weight of animal end,[2]; Cisplatin 2 mg/kg ip × 7 qd,23.1 g
same,Weight of tumor x ± SD,[2]; Cisplatin 2 mg/kg ip × 7 qd,0.181 ± 0.06 g
"O=C1c2c(O)ccc(O)c2C(=O)c2c(NCCNCCO)ccc(NCCNCCO)c21 [DHAD, Mitoxantrone]",Inhibition rate,"[3]; DHAD 2 mg/kg ip × 2(1, 3)",50.63** %
same,Weight of tumor x ± SD,"[3]; DHAD 2 mg/kg ip × 2(1, 3)",0.78 ± 0.20 g
CC(=O)O[C@@]12CO[C@@H]1C[C@H](O)[C@@]1(C)C(=O)[C@H](O)C3=C(C)[C@@H](OC(=O)[C@H](O)[C@@H](NC(=O)OC(C)(C)C)c4ccccc4)C[C@@](O)([C@@H](OC(=O)c4ccccc4)[C@H]21)C3(C)C [Docetaxel],Inhibition rate,[4],56.80%
same,Weight of tumor x ± SD,[4],1.27 ± 0.88 g
"Nc1ccn([C@@H]2O[C@H](CO)[C@@H](O)C2(F)F)c(=O)n1 [Gemcitabine, gemcitabine hydrochloride]",Inhibition rate,[5]; [19],49.14%
same,Weight of animal end,[5]; [19],25.1 g
same,Weight of animal start,[5]; [19],20.1 g
same,Weight of tumor x ± SD,[5]; [19],0.886 ± 0.24 g
same,Inhibition rate,[5]; [20],87.66%
same,Weight of animal end,[5]; [20],24.2 g
same,Weight of tumor x ± SD,[5]; [20],0.215 ± 0.11 g
same,Inhibition rate,[6],24.61%
same,Weight of tumor x ± SD,[6],0.1443 ± 0.081 g
"CCNC(=O)[C@@H]1CCCN1C(=O)[C@H](CCCNC(=N)N)NC(=O)[C@H](CC(C)C)NC(=O)[C@@H](CC(C)C)NC(=O)[C@H](Cc1ccc(O)cc1)NC(=O)[C@H](CO)NC(=O)[C@H](Cc1c[nH]c2ccccc12)NC(=O)[C@H](Cc1c[nH]cn1)NC(=O)[C@@H]1CCC(=O)N1 [Lupron, Leuprolide acetate]",Inhibition rate,[7]; Lupron 0.75 ml/kg iv × 1,36.36** %
same,Weight of tumor x ± SD,[7]; Lupron 0.75 ml/kg iv × 1,0.98 ± 0.23 g
same,Inhibition rate,[7]; Lupron 1.5 ml/kg iv × 1,50.65** %
same,Weight of tumor x ± SD,[7]; Lupron 1.5 ml/kg iv × 1,0.76 ± 0.14 g
"CO[C@@]12[C@H](COC(N)=O)C3=C(C(=O)C(C)=C(N)C3=O)N1C[C@@H]1N[C@@H]12 [MMC, Mitomycin]",Inhibition rate,"[3]; MMC 1.5 mg/kg ip × 2(1, 3)",38.61* %
same,Weight of tumor x ± SD,"[3]; MMC 1.5 mg/kg ip × 2(1, 3)",0.97 ± 0.19 g
"CC(=O)O[C@H]1C(=O)[C@@]2(C)[C@H]([C@H](OC(=O)c3ccccc3)[C@]3(O)C[C@H](OC(=O)[C@H](O)[C@@H](NC(=O)c4ccccc4)c4ccccc4)C(C)=C1C3(C)C)[C@]1(OC(C)=O)CO[C@@H]1C[C@@H]2O [Taxol, paclitaxel]",IC50,[8],0.46 µg/mL
same,IC50,[9],0.28 µg/mL
same,IC50,[10],0.49 µg/mL
same,IC50,[11],0.45 µg/mL
same,IC50,[12],0.18 µg/mL
same,IC50,[13],0.44 µg/mL
same,IC50,[14],0.22 µg/mL
same,IC50,[15],0.41 µg/mL
same,Inhibition rate,[16],62.87%
"O=P1(N(CCCl)CCCl)NCCCO1 (stereo not drawn) [cyclophosphamide, Cyclophosphamide]",Inhibition rate,[17]; [21],27.82%
same,Weight of animal end,[17]; [21],24.8 g
same,Weight of animal start,[17]; [21],20.7 g
same,Weight of tumor x ± SD,[17]; [21],1.108 ± 0.09 g
same,Inhibition rate,[17]; [22],82.74%
same,Weight of animal end,[17]; [22],25.0 g
same,Weight of animal start,[17]; [22],20.5 g
same,Weight of tumor x ± SD,[17]; [22],0.265 ± 0.12 g
same,Inhibition rate,"[3]; CTX 30 mg/kg ip × 2(1, 3)",41.77* %
same,Weight of tumor x ± SD,"[3]; CTX 30 mg/kg ip × 2(1, 3)",0.92 ± 0.21 g
same,Inhibition rate,"[18]; CTX 10 mg/kg iv × 2(3, 5)",37.83* %
same,Weight of tumor x ± SD,"[18]; CTX 10 mg/kg iv × 2(3, 5)",2.12 ± 1.22 g
same,Inhibition rate,[18]; CTX 30 mg/kg iv × 7,87.68** %
same,Weight of tumor x ± SD,[18]; CTX 30 mg/kg iv × 7,0.42 ± 0.85 g
